We go through five compounds from US11014924B2, “Hydantoin containing deoxyuridine triphosphatase inhibitors” (CV6 Therapeutics (NI) Limited, priority 2016, dated 2021).

One assay deals with SW620 cells. In words: MTS growth inhibition assay. It counts as cell-based. The settings on record: colorectal SW620; 5-FU between 0 and 100 μmol/L; 72 hours. As for the experimental part: (§1) The Cell Titer AQueous MTS assay (Promega) is carried out according to the manufacturers guidelines. […] The combination effect is determined by the combination index (CI) method utilizing Calcusyn software (Biosoft, Ferguson, Mo.). Fraction affected (FA) is calculated from the percent growth inhibition: FA=[…]. CI values <1, synergism; 1-1.2, additive and >1.2, antagonism.
(§2) Test compounds are evaluated for their antitumor activity in colorectal cancer cells using the MTS growth inhibition assay. HCT116 and SW620 cells are exposed to increasing concentrations of each agent for 72 hours and growth inhibition is directly compared to vehicle-treated controls. The NSCLC cell lines A549 and H1299 are exposed to increasing concentrations of each agent for 72 hours and growth inhibition is directly compared to vehicle-treated controls.
(§3) MTS growth inhibition assays are performed to evaluate the effectiveness of the test compounds alone and in combination with the fluoropyrimidine thymidylate synthase (TS) inhibitor 5-fluorouracil (5-FU) at inhibiting the growth of colorectal (HCT116 and SW620) cell line models. […] Simultaneous treatment with increasing concentrations of 5-FU and a test compound at fixed concentrations of 25 μmol/L is determined.
A general note: Tetrazolium dyes change colour on reduction, which living cells bring about.

Assay [1] deals with HCT116 cells. Briefly: MTS growth inhibition assay. The assay is classed as cell-based. The settings on record: colorectal HCT116; 5-FU between 0 and 100 μmol/L; 72 hours. As for the experimental part: as §1, §2, §3
Assay [2] addresses T1, recombinant human deoxyuridine nucleotidohydrolase (dUTPase) (Homo sapiens, UniProt P33316).
T1 construct: made in house
T1 sequence (P33316 1-164 isoform P33316-2): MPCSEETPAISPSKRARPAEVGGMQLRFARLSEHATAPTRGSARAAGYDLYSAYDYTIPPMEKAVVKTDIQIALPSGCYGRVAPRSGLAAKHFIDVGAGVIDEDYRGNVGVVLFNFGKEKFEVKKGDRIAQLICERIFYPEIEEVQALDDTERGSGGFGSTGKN
In words: fluorescence-based dUTPase inhibition assay. It counts as biochemical. The settings on record: 5 ng recombinant dUTPase, 50 pmols dUTP, 37° C. for 8 mins. The text has this: Recombinant human deoxyuridine nucleotidohydrolase (dUTPase) is expressed and purified as described in Ladner R D, Carr S A, Huddleston M J, McNulty D E, Caradonna S J. J Biol Chem. 1996 Mar. 29; 271(13):7752-7. All drugs stocks are aliquoted and diluted as appropriate prior to use. The oligonucleotide primer, templates and fluorophore- and quencher-labeled detection probes are synthesized by Integrated DNA Technologies (Coralville, Iowa), subjected to polyacrylamide gel electrophoresis purification and reconstituted in Omnipur sterile nuclease-free water (EMD Chemicals USA, Gibbstown N.J.) at a stock concentration of 100 μmol/L. The two non-emissive (dark) quenching molecules incorporated into the detection probes include the Iowa black […] (IBFQ; absorption max 531 nm) and ZEN (non-abbreviation; absorption max 532 nm). The fluorescent label utilized is 6-FAM (5′-carboxyfluorescein; excitation max.=494 nm, emission max.=520 nm). Probes are further diluted to a working stock of 10 μmol/L and aliquoted to avoid repeated freeze/thaw cycles. […]
Reaction mixtures contained primer, probe and template at an equimolar final concentration of 0.4 μmol/L. Magnesium chloride (MgCl2) is included at a final concentration of 2 mmol/L. Non-limiting dNTPs are included in the reaction mix in excess at a final concentration of 100 μmol/L (dUTP/dTTP is excluded). […] Thermal profiling and fluorescence detection is performed using a customized thermal program on board a Roche Lightcycler LC480 Instrument II. […] Raw fluorescence spectra for 6-FAM is measured at specified time intervals to follow assay progression on board a Roche LightCycler 480 Software Version 1.5 and exported and analyzed in Microsoft Excel (Microsoft, Redmond Wash.) and Prism (GraphPad Software, La Jolla Calif.). Fluorescence values for blank reactions (limiting dNTP omitted) are subtracted to give normalized fluorescence units (NFU) to account for background fluorescence.
Test compounds are screened in a fluorescence-based assay. […]

In a further assay the test system is A549 cells. In words: Colony forming assay. The settings on record: non-small cell lung A549; FUdR between 0.5 and 2.5 μmol/L. The assay is classed as cell-based. How it is done:
(§4) Colony forming assay showing the ability of colon (SW620, HCT116), non-small cell lung (A549, H460, H1299 and H358) and breast (MCF7) cancer cells to survive and proliferate following transient 24 hour exposure to test compounds, FUdR and combinations are determined. Specifically, cells are seeded at densities between 50 and 100 cells/well in 24-well plates. Twenty-four hours later, cells are treated with increasing concentrations of a rtest compound, a fixed dose of FUdR and combinations of these. After 24 hours, drug is removed, cells are rinsed and allowed to outgrow for 10-14 days. At the conclusion of the outgrowth, cells are fixed in 60% ice cold methanol and stained with 0.1% crystal violet, scanned and counted. Data is presented as percentage of untreated controls (mean±SD). Fraction affected and combination indexes are calculated according to the method of Chou and Talalay where <1 is indicative of a synergistic drug interaction.
(§5) Colony forming assays are performed to evaluate the effectiveness of test compounds alone and in combination with the fluoropyrimidine thymidylate synthase (TS) inhibitor fluorodeoxyuridine (FUdR) at reducing cancer cell viability in colorectal (HCT116), breast (MCF-7) and non-small cell lung (H1299, A549, H358 and H460) cell line models. […] In colorectal cancer cells, concentrations of test compounds ranging e.g., from 3.1 μmol/L to 50 μmol/L are combined with 0.5 μmol/L FUdR in HCT116 cells and 1 μmol/L FUdR in SW620 cells.

The subject of the next assay is H358 cells. Briefly: Colony forming assay. It counts as cell-based. The following applies: non-small cell lung H358; FUdR between 0.5 and 2.5 μmol/L. How it is done: as §4, §5
The test system of the next assay is MCF-7 cells. In words: Colony forming assay. The following applies: breast MCF-7; FUdR between 0.5 and 2.5 μmol/L. It counts as cell-based. As for the experimental part: as §4, §5
The subject of the next assay is H1299 cells. Briefly: Colony forming assay. It counts as cell-based. The settings on record: non-small cell lung H1299; FUdR between 0.5 and 2.5 μmol/L. As for the experimental part:
as §4, §5

Assay [3] has as its system HCT116 cells. In words: Colony forming assay. It counts as cell-based. The following applies: colorectal HCT116; FUdR between 0.5 and 2.5 μmol/L. As for the experimental part:
as §4, §5

The subject of a further assay is H460 cells. In words: Colony forming assay. The following applies: non-small cell lung H460; FUdR between 0.5 and 2.5 μmol/L. It counts as cell-based. How it is done:
as §4, §5

For the compound `O=c1[nH]cc(F)c(=O)[nH]1` [Example 5-FU, 5-fluorouracil], the growth inhibition result in the assay on SW620 cells and with HCT116 cells [1] was “dose-dependent increases in growth inhibition” each time.
What is called IC50 is the concentration at which inhibition is half-maximal. Turning to `C[C@@H](NS(=O)(=O)CCc1cccc(N2CC(=O)NC2=O)c1)c1ccc(F)c(OCC2CC2)c1` [Example 79, (R)—N-(1-(3-(cyclopropylmethoxy)-4-fluorophenyl)ethyl)-2-(3-(2,4-dioxoimidazolidin-1-yl)phenyl)ethane-1-sulfonamide], the IC50 in [2] was ~100 µM.
Turning to `C[C@@H](NS(=O)(=O)Cc1cccc(CN2CC(=O)NC2=O)c1)c1ccc(F)c(OCC2CC2)c1` [Example 81, (R)—N-(1-(3-(cyclopropylmethoxy)-4-fluorophenyl)ethyl)-1-(3-((2,4-dioxoimidazolidin-1-yl)methyl)phenyl)methanesulfonamide], the concentration for half-maximal inhibition (IC50) in assay [2] turned out to be 80 µM.
For the compound `C[C@@H](NS(=O)(=O)Cc1ccc(CN2CC(=O)NC2=O)cc1)c1ccc(F)c(OCC2CC2)c1` [Example 82, (R)—N-(1-(3-(cyclopropylmethoxy)-4-fluorophenyl)ethyl)-1-(4-((2,4-dioxoimidazolidin-1-yl)methyl)phenyl)methanesulfonamide], in [2], the half-maximal inhibitory concentration (IC50) is 2.2 µM.
In the case of `O=c1[nH]c(=O)n([C@H]2C[C@H](O)[C@@H](CO)O2)cc1F` [FUdR, fluorodeoxyuridine], the colonies formed entry in the assay on A549 cells, in the assay with H358 cells, in the assay on MCF-7 cells, in the assay on H1299 cells, in the assay with HCT116 cells [3] and in the assay on H460 cells was “dose-dependent decreases in colonies formed” each time.
